Reference: US6737383B1, “Herbicidal oxadiazolidines” (priority 1999, dated 2004)

Key:
Conditions in all cases: 0 to 100 scale, 0 no effect, 100 complete control
cotton = experiment: Test C postemergence cotton; assay type: in vivo, Gossypium hirsutum
Protocol: (§1) Compounds evaluated in this test were formulated in a non-phytotoxic solvent mixture which included a surfactant and applied to plants that were grown for various periods of time before treatment (postemergence application). A mixture of sandy loam soil and greenhouse potting mix in a 60:40 ratio was used for the postemergence test.
(§2) Plantings of these crops and weed species were adjusted to produce plants of appropriate size for the postemergence test. All plant species were grown using normal greenhouse practices. Crop and weed species include arrowleaf sida (Sida rhombifolia), barnyardgrass (Echinochloa crus-galli), cocklebur (Xanthium strumarium), common ragweed (Ambrosia elatior), corn (Zea mays), cotton (Gossypium hirsutum), eastern black nightshade (Solanum ptycanthum), fall panicum (Panicum dichotomiflorum), field bindweed (Convolvulus arvensis), giant foxtail (Setaria faberii), hairy beggarticks (Bidens pilosa), ivyleaf morningglory (Ipomoea hederacea), johnsongrass (Sorghum halepense), ladysthumb smartweed (Polygonum persicaria), lambsquarters (Chenopodium album), large crabgrass (Digitaria sanguinalis), purple nutsedge (Cyperus rotundus), redroot pigweed (Amaranthus retroflexus), soybean (Glycine max), surinam grass (Brachiaria decumbens), velvetleaf (Abutilon theophrasti) and wild poinsettia (Euphorbia heterophylla).
(§3) Treated plants and untreated controls were maintained in a greenhouse for approximately 14, to 21 days, after which all treated plants were compared to untreated controls and visually evaluated. Plant response ratings, summarized in Table C, were based upon a 0 to 100 scale where 0 was no effect and 100 was complete control. A dash response (−) means no test result.

hairy beggarticks = experiment: Test C postemergence hairy beggarticks; assay type: in vivo, Bidens pilosa
Outline: (§4)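 Foliar postemergence treatment of greenhouse plants grown in 60:40 sandy loam:potting mix; compounds delivered in non-phytotoxic solvent with surfactant. Evaluation is visual, 0–100, after ~14–21 d.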

lambsquarters = experiment: Test C postemergence lambsquarters; assay type: in vivo, Chenopodium album
Protocol: as §1, §2, §3

ladysthumb smartweed = experiment: Test C postemergence ladysthumb smartweed; assay type: in vivo, Polygonum persicaria
Protocol: as §1, §2, §3

surinam grass = experiment: Test C postemergence surinam grass; assay type: in vivo, Brachiaria decumbens
Protocol: as §1, §2, §3

redroot pigweed = experiment: Test C postemergence redroot pigweed; assay type: in vivo, Amaranthus retroflexus
Protocol: as §1, §2, §3

corn = experiment: Test C postemergence corn; assay type: in vivo, Zea mays
Protocol: as §1, §2, §3

velvetleaf = experiment: Test C postemergence velvetleaf; assay type: in vivo, Abutilon theophrasti
Protocol: as §1, §2, §3

ivyleaf morningglory = experiment: Test C postemergence ivyleaf morningglory; assay type: in vivo, Ipomoea hederacea
Outline: as §4

giant foxtail = experiment: Test C postemergence giant foxtail; assay type: in vivo, Setaria faberii
Outline: as §4

common ragweed = experiment: Test C postemergence common ragweed; assay type: in vivo, Ambrosia elatior
Outline: as §4

barnyardgrass = experiment: Test C postemergence barnyardgrass; assay type: in vivo, Echinochloa crus-galli
Outline: as §4

SMILES: CC(C)N(C(=O)n1oc(=O)n(Cc2cccs2)c1=O)c1ccc(F)cc1 [Compound 80]
- Plant response rating Cotton (cotton; Rate 140 g/ha): 20
- Plant response rating Cotton (cotton; Rate 280 g/ha): 35
- Plant response rating Cotton (cotton; Rate 560 g/ha): 40
- Plant response rating Cotton (cotton; Rate 1120 g/ha): 40
- Plant response rating H. beggarticks (hairy beggarticks; Rate 140 g/ha): 0
- Plant response rating H. beggarticks (hairy beggarticks; Rate 560 g/ha): 10
- Plant response rating H. beggarticks (hairy beggarticks; Rate 1120 g/ha): 10
- Plant response rating, Lambsquarters (lambsquarters; Rate 140 g/ha): 0
- Plant response rating, Lambsquarters (lambsquarters; Rate 280 g/ha): 15
- Plant response rating, Lambsquarters (lambsquarters; Rate 560 g/ha): 20
- Plant response rating, Lambsquarters (lambsquarters; Rate 1120 g/ha): 20
- Plant response rating Ladysthumb (ladysthumb smartweed; Rate 140 g/ha): 10
- Plant response rating Ladysthumb (ladysthumb smartweed; Rate 280 g/ha): 10
- Plant response rating Ladysthumb (ladysthumb smartweed; Rate 560 g/ha): 70
- Plant response rating Ladysthumb (ladysthumb smartweed; Rate 1120 g/ha): 70
- Plant response rating, Surinam grass (surinam grass; Rate 140 g/ha): 0
- Plant response rating, Surinam grass (surinam grass; Rate 280 g/ha): 0
- Plant response rating, Surinam grass (surinam grass; Rate 560 g/ha): 0
- Plant response rating, Surinam grass (surinam grass; Rate 1120 g/ha): 10
- Plant response rating, Redroot pigweed (redroot pigweed; Rate 280 g/ha): 0
- Plant response rating, Redroot pigweed (redroot pigweed; Rate 560 g/ha): 50
- Plant response rating, Redroot pigweed (redroot pigweed; Rate 1120 g/ha): 80
- Plant response rating, Corn (corn; Rate 140 g/ha): 0
- Plant response rating, Corn (corn; Rate 280 g/ha): 0
- Plant response rating, Corn (corn; Rate 560 g/ha): 0
- Plant response rating, Corn (corn; Rate 1120 g/ha): 0
- Plant response rating, Velvetleaf (velvetleaf; Rate 140 g/ha): 5
- Plant response rating, Velvetleaf (velvetleaf; Rate 280 g/ha): 5
- Plant response rating, Velvetleaf (velvetleaf; Rate 560 g/ha): 20
- Plant response rating, Velvetleaf (velvetleaf; Rate 1120 g/ha): 20
- Plant response rating I. morningglory (ivyleaf morningglory; Rate 140 g/ha): 0
- Plant response rating I. morningglory (ivyleaf morningglory; Rate 280 g/ha): 10
- Plant response rating I. morningglory (ivyleaf morningglory; Rate 560 g/ha): 30
- Plant response rating I. morningglory (ivyleaf morningglory; Rate 1120 g/ha): 50
- Plant response rating, Giant foxtail (giant foxtail; Rate 140 g/ha): 0
- Plant response rating, Giant foxtail (giant foxtail; Rate 280 g/ha): 0
- Plant response rating, Giant foxtail (giant foxtail; Rate 560 g/ha): 0
- Plant response rating, Giant foxtail (giant foxtail; Rate 1120 g/ha): 20
- Plant response rating Common ragweed (common ragweed; Rate 140 g/ha): 0
- Plant response rating Common ragweed (common ragweed; Rate 280 g/ha): 0
- Plant response rating Common ragweed (common ragweed; Rate 560 g/ha): 5
- Plant response rating Common ragweed (common ragweed; Rate 1120 g/ha): 5
- Plant response rating, Barnyardgrass (barnyardgrass; Rate 140 g/ha): 0
- Plant response rating, Barnyardgrass (barnyardgrass; Rate 280 g/ha): 10
- Plant response rating, Barnyardgrass (barnyardgrass; Rate 560 g/ha): 20
- Plant response rating, Barnyardgrass (barnyardgrass; Rate 1120 g/ha): 20

SMILES: C=CCn1c(=O)on(C(=O)N(c2ccccc2)C(C)C)c1=O [Compound 93]
- Plant response rating Cotton (cotton; Rate 140 g/ha): 15
- Plant response rating Cotton (cotton; Rate 280 g/ha): 30
- Plant response rating Cotton (cotton; Rate 560 g/ha): 70
- Plant response rating Cotton (cotton; Rate 1120 g/ha): 85
- Plant response rating H. beggarticks (hairy beggarticks; Rate 280 g/ha): 0
- Plant response rating H. beggarticks (hairy beggarticks; Rate 560 g/ha): 5
- Plant response rating H. beggarticks (hairy beggarticks; Rate 1120 g/ha): 70
- Plant response rating, Lambsquarters (lambsquarters; Rate 140 g/ha): 10
- Plant response rating, Lambsquarters (lambsquarters; Rate 280 g/ha): 10
- Plant response rating, Lambsquarters (lambsquarters; Rate 560 g/ha): 10
- Plant response rating, Lambsquarters (lambsquarters; Rate 1120 g/ha): 40
- Plant response rating Ladysthumb (ladysthumb smartweed; Rate 140 g/ha): 0
- Plant response rating Ladysthumb (ladysthumb smartweed; Rate 280 g/ha): 0
- Plant response rating Ladysthumb (ladysthumb smartweed; Rate 560 g/ha): 80
- Plant response rating, Surinam grass (surinam grass; Rate 140 g/ha): 0
- Plant response rating, Surinam grass (surinam grass; Rate 280 g/ha): 45
- Plant response rating, Surinam grass (surinam grass; Rate 560 g/ha): 50
- Plant response rating, Surinam grass (surinam grass; Rate 1120 g/ha): 85
- Plant response rating, Redroot pigweed (redroot pigweed; Rate 140 g/ha): 5
- Plant response rating, Redroot pigweed (redroot pigweed; Rate 560 g/ha): 10
- Plant response rating, Redroot pigweed (redroot pigweed; Rate 1120 g/ha): 85
- Plant response rating, Corn (corn; Rate 140 g/ha): 0
- Plant response rating, Corn (corn; Rate 280 g/ha): 0
- Plant response rating, Corn (corn; Rate 560 g/ha): 0
- Plant response rating, Corn (corn; Rate 1120 g/ha): 45
- Plant response rating, Velvetleaf (velvetleaf; Rate 140 g/ha): 0
- Plant response rating, Velvetleaf (velvetleaf; Rate 280 g/ha): 5
- Plant response rating, Velvetleaf (velvetleaf; Rate 560 g/ha): 40
- Plant response rating, Velvetleaf (velvetleaf; Rate 1120 g/ha): 70
- Plant response rating I. morningglory (ivyleaf morningglory; Rate 140 g/ha): 5
- Plant response rating I. morningglory (ivyleaf morningglory; Rate 280 g/ha): 10
- Plant response rating I. morningglory (ivyleaf morningglory; Rate 560 g/ha): 10
- Plant response rating I. morningglory (ivyleaf morningglory; Rate 1120 g/ha): 70
- Plant response rating, Giant foxtail (giant foxtail; Rate 140 g/ha): 10
- Plant response rating, Giant foxtail (giant foxtail; Rate 280 g/ha): 55
- Plant response rating, Giant foxtail (giant foxtail; Rate 560 g/ha): 80
- Plant response rating, Giant foxtail (giant foxtail; Rate 1120 g/ha): 95
- Plant response rating Common ragweed (common ragweed; Rate 140 g/ha): 5
- Plant response rating Common ragweed (common ragweed; Rate 280 g/ha): 10
- Plant response rating Common ragweed (common ragweed; Rate 560 g/ha): 10
- Plant response rating Common ragweed (common ragweed; Rate 1120 g/ha): 20
- Plant response rating, Barnyardgrass (barnyardgrass; Rate 140 g/ha): 70
- Plant response rating, Barnyardgrass (barnyardgrass; Rate 280 g/ha): 90
- Plant response rating, Barnyardgrass (barnyardgrass; Rate 560 g/ha): 90
- Plant response rating, Barnyardgrass (barnyardgrass; Rate 1120 g/ha): 95

SMILES: CC(C)N(C(=O)n1oc(=O)n(Cc2cccs2)c1=O)c1ccccc1 [Compound 103]
- Plant response rating Cotton (cotton; Rate 140 g/ha): 0
- Plant response rating Cotton (cotton; Rate 280 g/ha): 20
- Plant response rating Cotton (cotton; Rate 560 g/ha): 40
- Plant response rating Cotton (cotton; Rate 1120 g/ha): 80
- Plant response rating H. beggarticks (hairy beggarticks; Rate 140 g/ha): 0
- Plant response rating H. beggarticks (hairy beggarticks; Rate 280 g/ha): 0
- Plant response rating H. beggarticks (hairy beggarticks; Rate 560 g/ha): 0
- Plant response rating H. beggarticks (hairy beggarticks; Rate 1120 g/ha): 5
- Plant response rating, Lambsquarters (lambsquarters; Rate 140 g/ha): 0
- Plant response rating, Lambsquarters (lambsquarters; Rate 280 g/ha): 5
- Plant response rating, Lambsquarters (lambsquarters; Rate 560 g/ha): 5
- Plant response rating, Lambsquarters (lambsquarters; Rate 1120 g/ha): 20
- Plant response rating Ladysthumb (ladysthumb smartweed; Rate 140 g/ha): 0
- Plant response rating Ladysthumb (ladysthumb smartweed; Rate 280 g/ha): 0
- Plant response rating Ladysthumb (ladysthumb smartweed; Rate 560 g/ha): 10
- Plant response rating Ladysthumb (ladysthumb smartweed; Rate 1120 g/ha): 10
- Plant response rating, Surinam grass (surinam grass; Rate 140 g/ha): 0
- Plant response rating, Surinam grass (surinam grass; Rate 280 g/ha): 0
- Plant response rating, Surinam grass (surinam grass; Rate 560 g/ha): 0
- Plant response rating, Surinam grass (surinam grass; Rate 1120 g/ha): 5
- Plant response rating, Redroot pigweed (redroot pigweed; Rate 140 g/ha): 0
- Plant response rating, Redroot pigweed (redroot pigweed; Rate 280 g/ha): 60
- Plant response rating, Redroot pigweed (redroot pigweed; Rate 560 g/ha): 70
- Plant response rating, Redroot pigweed (redroot pigweed; Rate 1120 g/ha): 85
- Plant response rating, Corn (corn; Rate 140 g/ha): 0
- Plant response rating, Corn (corn; Rate 280 g/ha): 0
- Plant response rating, Corn (corn; Rate 560 g/ha): 0
- Plant response rating, Corn (corn; Rate 1120 g/ha): 0
- Plant response rating, Velvetleaf (velvetleaf; Rate 140 g/ha): 0
- Plant response rating, Velvetleaf (velvetleaf; Rate 280 g/ha): 5
- Plant response rating, Velvetleaf (velvetleaf; Rate 560 g/ha): 10
- Plant response rating, Velvetleaf (velvetleaf; Rate 1120 g/ha): 45
- Plant response rating I. morningglory (ivyleaf morningglory; Rate 140 g/ha): 0
- Plant response rating I. morningglory (ivyleaf morningglory; Rate 280 g/ha): 0
- Plant response rating I. morningglory (ivyleaf morningglory; Rate 560 g/ha): 0
- Plant response rating I. morningglory (ivyleaf morningglory; Rate 1120 g/ha): 10
- Plant response rating, Giant foxtail (giant foxtail; Rate 140 g/ha): 0
- Plant response rating, Giant foxtail (giant foxtail; Rate 280 g/ha): 0
- Plant response rating, Giant foxtail (giant foxtail; Rate 560 g/ha): 0
- Plant response rating, Giant foxtail (giant foxtail; Rate 1120 g/ha): 40
- Plant response rating Common ragweed (common ragweed; Rate 140 g/ha): 0
- Plant response rating Common ragweed (common ragweed; Rate 280 g/ha): 0
- Plant response rating Common ragweed (common ragweed; Rate 560 g/ha): 0
- Plant response rating Common ragweed (common ragweed; Rate 1120 g/ha): 5
- Plant response rating, Barnyardgrass (barnyardgrass; Rate 140 g/ha): 0
- Plant response rating, Barnyardgrass (barnyardgrass; Rate 280 g/ha): 0
- Plant response rating, Barnyardgrass (barnyardgrass; Rate 560 g/ha): 10
- Plant response rating, Barnyardgrass (barnyardgrass; Rate 1120 g/ha): 80
